Assay results: patent US20210270815A1, “SPERM FERTILITY CAPACITY TEST AND SPERM DECAPACITATING SUPPLEMENT” (priority 2018, published 2021)
Residues, ends and D or L forms follow the SMILES beside them. *: point of attachment. Cbz = O=C(OCc1ccccc1)*

Assays:
boar spermatozoa [1] = assay: Zinc signature (FZ3, image-based flow cytometry) of boar spermatozoa after 4 hours of in vitro capacitation (IVC); assay type: cell-based, Sus scrofa
From the text: Fresh boar spermatozoa were capacitated using a protocol that rendered them capable of recognizing and binding to ZP, as well as undergoing acrosomal exocytosis and penetrating the oocyte ZP^11. IVC-induced protein tyrosine phosphorylation changes are shown in FIG. 3; acrosomal status and plasma membrane changes are shown in FIG. 4A and FIG. 4B. Briefly, spermatozoa were washed of seminal plasma once with noncapacitating media (NCM), a modified TL-HEPES medium, free of calcium dichloride (CaCl2) and addition of 11 mM D-glucose, with pH adjusted to 7.2. Spermatozoa were then resuspended in 0.5 mL in vitro capacitation (IVC) media, TL-HEPES-PVA supplemented with 5 mM sodium pyruvate, 11 mM D-glucose, 2 mM CaCl2, 2 mM sodium bicarbonate, and 2% (m/v) bovine serum albumin, and incubated in a 37° C. water bath for 4 hours, with sperm rotation performed every 60 minutes. Control incubations under non-IVC conditions used NCM. Proteasome inhibitors (100 μM MG-132 and 10 μM Epox/CLBL/MG-132) were mixed with IVC media prior to sperm pellet resuspension. 100 μM M MG-132 and ‘100 μM’ vehicle contained 0.5% (v/v) DMSO. 10 μM Epox/CLBL/MG-132 and ‘10 μM’ vehicle contained 0.3% (v/v) DMSO. PVA (polyvinyl alcohol) helped to reduce sperm aggregation and spermatozoa were pipetted repeatedly to dissociate sperm aggregates in a satisfactory manner prior to IBFC data acquisition. To confirm normal capacitation in the experimental IVC media, compared to 15 mM sodium bicarbonate IVC media, normal hyperactivation status was recorded and tyrosine phosphorylation status was normal (FIG. 3). Unlike murine or rodent sperm tyrosine phosphorylation, porcine tyrosine phosphorylation is much more modest, with less prominent changes during the course of capacitation. Therefore new bands after capacitation appear only at the molar weights of 32 kDa (acrosin binding protein), and 21 kDa protein (phospholipid hydroperoxide glutathione peroxidase). […] Final acrosome and plasma membrane modification status is similar at end of IVC regardless of the two IVC treatment conditions; however, the rate of change and cell death is faster in 15 mM sodium bicarbonate containing medium than experimental IVC medium (FIGS. 4A and 4B).
(§1) Upon 4 hours of IVC, sample size of 100 μL (4 million spermatozoa) were incubated 30 minutes with 1:200 H33342, 1:200 PI, and 1:100 FZ3 for epifluorescence microscopy. Lower probe concentrations were necessary for IBFC due to camera detection differences, thus 1:1000, 1:1000, and 1:500 were used, respectively, with inclusion of 1:1000 PNA-AF647. For Fluo-4 calcium probe, we followed manufacturer protocol using identical cell concentrations.
IBFC data acquisition was performed following previous methodology^56. Specifically, using a FlowSight flow cytometer (FS) fitted with a 20× microscope objective (numerical aperture of 0.9) with an imaging rate up to 2000 events per sec. The sheath fluid was PBS (without Ca^2+ or Mg^2+). The flow-core diameter and speed was 10 μm and 66 mm per sec, respectively. Raw image data were acquired using INSPIRE® software. To produce the highest resolution, the camera setting was at 1.0 μm per pixel of the charged-coupled device. In INSPIRE® FS data acquisition software, two brightfield channels were collected (channels 1 & 9), one FZ3 image (channel 2), one PI image (channel 5), one side scatter (SSC; channel 6), one H33342 (channel 7), and one PNA-AF647 image (channel 11), with a minimum of 10,000 spermatozoa collected. The following lasers and power settings were used: 405 nm (to excite H33342): 10 mW; 488 nm (to excite FZ3): 60 mW; 561 nm (to excite PI): 40 mW, 642 nm (to excite PNA-AF647): 25 mW; and 785 nM SSC laser: 10 mW.
Data were analyzed using IDEAS® analysis software from AMNIS EMD Millipore. Gating approach used standard focus and single cell gating calculations created by IDEAS software (FIG. 2A, left and middle panels). […]

boar spermatozoa [2] = assay: TPEN Zn chelation of spermatozoa, FZ3 zinc probe and Fluo-4 calcium probe fluorescence; assay type: cell-based, Sus scrofa; details: 10 μM, 40 million sperm per mL, 1 hour
Description: Zn^2+ chelation was performed using TPEN (membrane permeable). 10 μM TPEN was incubated with 40 million sperm per mL for 1 hour. Stock TPEN: 1 mM in 1:100 EtOH:H2O.
as §1
IBFC data acquisition was performed following previous methodology^56. […]
Data were analyzed using IDEAS® analysis software from AMNIS EMD Millipore. […] Events in focus were further gated to analyze only a single spermatozoa by plotting H33342 fluorescence area by aspect ratio (FIG. 2A, middle panel). […] Such mask was created by taking a morphology mask of the brightfield (FIG. 2B, first column), subtracting a 4-pixel dilation of H33342 (FIG. 2B, second column), resulting in a mask to analyze fluorescence in the tail region only (FIG. 2B, third and fourth columns). […] This combined gating and masking strategy shown in FIG. 2C provided robust clean data, ready for signature analysis by plotting FZ3 intensity of this masked region, which is impossible with traditional flow cytometry. […]

[3] = 100 μM in IVC media, 4 hours 37° C., pre-sperm rich fraction, mean±s.e.m., 3 biological replicates, 10,000 cells

SMILES: CC(C)C[C@@H](C=O)NC(=O)[C@H](CC(C)C)NC(=O)[C@H](CC(C)C)NC(=O)OCc1ccccc1 [MG132] (Cbz-Leu-Leu-Leu-aldehyde)
- Signature 1 (portion of spermatozoa with zinc signature 1) (boar spermatozoa [1]; [3]): 30.8% ± 13.1%^B
- Signature 2 (portion of spermatozoa with zinc signature 2) (boar spermatozoa [1]; [3]): 32.9% ± 19.5%
- Signature 3 (portion of spermatozoa with zinc signature 3) (boar spermatozoa [1]; [3]): 31.0% ± 4.9%^B
- Signature 4 (portion of spermatozoa with zinc signature 4) (boar spermatozoa [1]; [3]): 5.4% ± 4.9%^AB
- Retention of zinc signature 1 during IVC as compared to IVC+vehicle (boar spermatozoa [1]; added to IVC conditions, pre-sperm rich fraction, P=0.0271 (signatures 1 & 2 combined P=0.0008)): significantly higher portion of spermatozoa retained signature 1

SMILES: c1ccc(CN(CCN(Cc2ccccn2)Cc2ccccn2)Cc2ccccn2)nc1 [TPEN, N,N,N′,N′-Tetrakis(2-pyridinylmethyl)-1,2-ethanediamine]
- FZ3 fluorescence / zinc signature after Zn chelation, compared to vehicle (boar spermatozoa [2]): removed a majority of FZ3 fluorescence to signature 3 and 4 states
- Fluo-4 calcium probe intensity compared to vehicle (boar spermatozoa [2]): did not reduce Fluo-4 calcium probe intensity

SMILES: [Cl-].[Cl-].[Zn+2] [ZnCl2, zinc chloride]
- Zinc signature after IVC with exogenous zinc (boar spermatozoa [1]; 1 mM added to IVC medium): retained signature 1
